From ChEMBL document CHEMBL3991601, “The target landscape of clinical kinase drugs” (Science, 2017)
Calls of active or inactive are those of the source.

Each molecule was assayed against T1, Ephrin type-B receptor 2 (Homo sapiens, UniProt P29323).
T1 sequence (P29323 whole entry): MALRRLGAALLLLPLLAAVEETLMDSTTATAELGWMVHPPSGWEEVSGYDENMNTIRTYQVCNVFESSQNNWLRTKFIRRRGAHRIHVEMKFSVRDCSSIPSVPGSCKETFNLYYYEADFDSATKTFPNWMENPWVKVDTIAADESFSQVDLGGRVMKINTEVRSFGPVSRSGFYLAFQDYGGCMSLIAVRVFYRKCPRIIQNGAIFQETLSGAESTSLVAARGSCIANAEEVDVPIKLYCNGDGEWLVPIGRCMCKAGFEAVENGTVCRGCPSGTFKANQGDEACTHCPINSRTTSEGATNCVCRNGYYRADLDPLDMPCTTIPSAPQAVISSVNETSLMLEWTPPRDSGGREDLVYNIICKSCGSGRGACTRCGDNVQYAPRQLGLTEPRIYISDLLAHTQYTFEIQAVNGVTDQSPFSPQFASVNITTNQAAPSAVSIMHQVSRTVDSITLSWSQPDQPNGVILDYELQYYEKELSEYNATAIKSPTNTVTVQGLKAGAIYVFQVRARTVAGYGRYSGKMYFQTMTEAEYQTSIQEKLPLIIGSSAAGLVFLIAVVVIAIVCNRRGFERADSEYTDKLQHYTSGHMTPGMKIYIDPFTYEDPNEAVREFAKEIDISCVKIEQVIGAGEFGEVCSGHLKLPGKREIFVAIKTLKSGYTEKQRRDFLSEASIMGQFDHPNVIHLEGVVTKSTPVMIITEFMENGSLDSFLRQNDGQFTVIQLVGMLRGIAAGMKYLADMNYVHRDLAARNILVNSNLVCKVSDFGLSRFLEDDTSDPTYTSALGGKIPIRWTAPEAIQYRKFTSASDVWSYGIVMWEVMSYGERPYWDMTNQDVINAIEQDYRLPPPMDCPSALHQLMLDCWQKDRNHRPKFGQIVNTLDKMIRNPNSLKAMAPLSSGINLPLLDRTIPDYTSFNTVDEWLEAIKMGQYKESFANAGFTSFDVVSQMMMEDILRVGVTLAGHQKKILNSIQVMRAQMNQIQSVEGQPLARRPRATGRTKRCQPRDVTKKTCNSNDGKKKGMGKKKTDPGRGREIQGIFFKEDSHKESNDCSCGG
Note: in the data inactive means no Kd found up to 30 µM.

Structure (SMILES) | Kd
COc1cc(N2CCC(N3CCN(C)CC3)CC2)ccc1Nc1ncnc(Nc2ccccc2S(=O)(=O)C(C)C)n1 [ASP-3026] | > 30 µM (inactive)
CNS(=O)(=O)Nc1nccc(Cc2c(C)c3ccc(Oc4ncccn4)cc3oc2=O)c1F [AVUTOMETINIB] | > 30 µM (inactive)
COc1cc(CCc2cc(NC(=O)c3ccc(N4C[C@@H](C)N[C@@H](C)C4)cc3)n[nH]2)cc(OC)c1 [AZD-4547] | > 30 µM (inactive)
Cc1cc([C@@H](C)Nc2ccccc2C(=O)O)c2nc(N3CCOCC3)cc(=O)n2c1 [AZD-6482] | > 30 µM (inactive)
COc1ccc(-c2ccc3c(N4CCOC[C@@H]4C)nc(N4CCOC[C@@H]4C)nc3n2)cc1CO [AZD-8055] | > 30 µM (inactive)
C[C@@H](Nc1cc(F)cc(F)c1)c1cc(C(=O)N(C)C)cc2c(=O)cc(N3CCOCC3)oc12 [AZD-8186] | > 30 µM (inactive)
Cc1ccc(NC(=O)c2ccc(CN3CC[C@H](N(C)C)C3)c(C(F)(F)F)c2)cc1Nc1nccc(-c2cncnc2)n1 [BAFETINIB] | 53.2 µM (active)

These molecules were tested against T2, Mitogen-activated protein kinase kinase kinase 5 (Homo sapiens, UniProt Q99683).
T2 sequence (Q99683 whole entry): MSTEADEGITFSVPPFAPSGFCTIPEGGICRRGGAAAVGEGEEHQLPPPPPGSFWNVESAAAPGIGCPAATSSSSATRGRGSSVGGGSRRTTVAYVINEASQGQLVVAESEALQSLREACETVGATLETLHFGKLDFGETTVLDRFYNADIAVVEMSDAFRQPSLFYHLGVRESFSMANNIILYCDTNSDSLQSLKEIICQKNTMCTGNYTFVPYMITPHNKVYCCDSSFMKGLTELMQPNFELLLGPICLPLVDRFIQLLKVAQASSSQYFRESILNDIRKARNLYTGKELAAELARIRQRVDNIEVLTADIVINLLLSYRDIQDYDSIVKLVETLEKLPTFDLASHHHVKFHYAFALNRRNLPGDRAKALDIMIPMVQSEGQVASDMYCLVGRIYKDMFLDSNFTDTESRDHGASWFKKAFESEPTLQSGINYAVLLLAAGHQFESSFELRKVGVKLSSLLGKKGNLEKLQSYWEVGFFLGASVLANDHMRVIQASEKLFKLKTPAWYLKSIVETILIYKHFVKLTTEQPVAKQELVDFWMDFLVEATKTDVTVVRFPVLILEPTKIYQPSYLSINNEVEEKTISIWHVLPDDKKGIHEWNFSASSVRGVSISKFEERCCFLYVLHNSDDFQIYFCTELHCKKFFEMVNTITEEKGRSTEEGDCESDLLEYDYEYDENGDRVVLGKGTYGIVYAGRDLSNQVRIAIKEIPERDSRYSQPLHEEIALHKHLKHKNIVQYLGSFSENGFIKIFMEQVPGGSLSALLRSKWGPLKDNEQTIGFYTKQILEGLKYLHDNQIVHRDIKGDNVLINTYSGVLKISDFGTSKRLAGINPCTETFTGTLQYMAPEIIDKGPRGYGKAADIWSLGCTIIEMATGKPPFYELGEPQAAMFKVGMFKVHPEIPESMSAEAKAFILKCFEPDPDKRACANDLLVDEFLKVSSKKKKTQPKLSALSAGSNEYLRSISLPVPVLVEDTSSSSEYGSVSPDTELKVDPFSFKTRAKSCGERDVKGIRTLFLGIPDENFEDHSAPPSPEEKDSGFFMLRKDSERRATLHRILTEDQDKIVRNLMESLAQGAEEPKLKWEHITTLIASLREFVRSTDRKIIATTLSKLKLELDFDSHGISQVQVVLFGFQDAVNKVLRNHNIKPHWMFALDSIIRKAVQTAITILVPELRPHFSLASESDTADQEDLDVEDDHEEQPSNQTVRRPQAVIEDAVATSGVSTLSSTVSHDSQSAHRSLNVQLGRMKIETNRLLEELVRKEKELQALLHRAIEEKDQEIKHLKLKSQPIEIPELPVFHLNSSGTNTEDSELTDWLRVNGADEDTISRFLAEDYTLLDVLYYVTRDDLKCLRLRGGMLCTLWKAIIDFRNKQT

Structure (SMILES) | Kd
COc1cc(N2CCC(N3CCN(C)CC3)CC2)ccc1Nc1ncnc(Nc2ccccc2S(=O)(=O)C(C)C)n1 [ASP-3026] | > 30 µM (inactive)
CNS(=O)(=O)Nc1nccc(Cc2c(C)c3ccc(Oc4ncccn4)cc3oc2=O)c1F [AVUTOMETINIB] | > 30 µM (inactive)
COc1cc(CCc2cc(NC(=O)c3ccc(N4C[C@@H](C)N[C@@H](C)C4)cc3)n[nH]2)cc(OC)c1 [AZD-4547] | > 30 µM (inactive)
Cc1cc([C@@H](C)Nc2ccccc2C(=O)O)c2nc(N3CCOCC3)cc(=O)n2c1 [AZD-6482] | > 30 µM (inactive)
COc1ccc(-c2ccc3c(N4CCOC[C@@H]4C)nc(N4CCOC[C@@H]4C)nc3n2)cc1CO [AZD-8055] | > 30 µM (inactive)
C[C@@H](Nc1cc(F)cc(F)c1)c1cc(C(=O)N(C)C)cc2c(=O)cc(N3CCOCC3)oc12 [AZD-8186] | > 30 µM (inactive)
Cc1ccc(NC(=O)c2ccc(CN3CC[C@H](N(C)C)C3)c(C(F)(F)F)c2)cc1Nc1nccc(-c2cncnc2)n1 [BAFETINIB] | > 30 µM (inactive)

Each molecule was assayed against Tyrosine-protein kinase BTK (Homo sapiens, UniProt Q06187).
Tyrosine-protein kinase BTK, sequence (Q06187 whole entry): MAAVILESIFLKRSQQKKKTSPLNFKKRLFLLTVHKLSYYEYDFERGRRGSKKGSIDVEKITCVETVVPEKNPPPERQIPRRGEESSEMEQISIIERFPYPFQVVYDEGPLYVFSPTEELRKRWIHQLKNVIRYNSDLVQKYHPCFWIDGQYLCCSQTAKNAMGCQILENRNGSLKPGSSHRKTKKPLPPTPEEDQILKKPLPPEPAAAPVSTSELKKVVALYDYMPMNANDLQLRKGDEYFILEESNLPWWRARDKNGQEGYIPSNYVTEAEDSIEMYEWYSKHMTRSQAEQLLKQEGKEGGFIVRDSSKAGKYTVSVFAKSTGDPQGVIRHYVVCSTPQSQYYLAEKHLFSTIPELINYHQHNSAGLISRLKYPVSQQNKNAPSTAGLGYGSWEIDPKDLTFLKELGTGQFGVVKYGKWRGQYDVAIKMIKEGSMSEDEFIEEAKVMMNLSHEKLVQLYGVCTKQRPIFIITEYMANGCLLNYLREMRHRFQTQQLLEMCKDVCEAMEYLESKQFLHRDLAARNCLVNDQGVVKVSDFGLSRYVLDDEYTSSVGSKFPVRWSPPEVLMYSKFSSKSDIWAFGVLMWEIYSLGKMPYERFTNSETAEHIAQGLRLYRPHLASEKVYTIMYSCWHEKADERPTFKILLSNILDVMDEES

Structure (SMILES) | Kd
COc1cc(N2CCC(N3CCN(C)CC3)CC2)ccc1Nc1ncnc(Nc2ccccc2S(=O)(=O)C(C)C)n1 [ASP-3026] | 0.494 µM (active)
CNS(=O)(=O)Nc1nccc(Cc2c(C)c3ccc(Oc4ncccn4)cc3oc2=O)c1F [AVUTOMETINIB] | > 30 µM (inactive)
COc1cc(CCc2cc(NC(=O)c3ccc(N4C[C@@H](C)N[C@@H](C)C4)cc3)n[nH]2)cc(OC)c1 [AZD-4547] | > 30 µM (inactive)
Cc1cc([C@@H](C)Nc2ccccc2C(=O)O)c2nc(N3CCOCC3)cc(=O)n2c1 [AZD-6482] | > 30 µM (inactive)
COc1ccc(-c2ccc3c(N4CCOC[C@@H]4C)nc(N4CCOC[C@@H]4C)nc3n2)cc1CO [AZD-8055] | > 30 µM (inactive)
C[C@@H](Nc1cc(F)cc(F)c1)c1cc(C(=O)N(C)C)cc2c(=O)cc(N3CCOCC3)oc12 [AZD-8186] | > 30 µM (inactive)
Cc1ccc(NC(=O)c2ccc(CN3CC[C@H](N(C)C)C3)c(C(F)(F)F)c2)cc1Nc1nccc(-c2cncnc2)n1 [BAFETINIB] | > 30 µM (inactive)

These molecules were tested against Mitogen-activated protein kinase 11 (Homo sapiens, UniProt Q15759).
Mitogen-activated protein kinase 11, sequence (Q15759 whole entry): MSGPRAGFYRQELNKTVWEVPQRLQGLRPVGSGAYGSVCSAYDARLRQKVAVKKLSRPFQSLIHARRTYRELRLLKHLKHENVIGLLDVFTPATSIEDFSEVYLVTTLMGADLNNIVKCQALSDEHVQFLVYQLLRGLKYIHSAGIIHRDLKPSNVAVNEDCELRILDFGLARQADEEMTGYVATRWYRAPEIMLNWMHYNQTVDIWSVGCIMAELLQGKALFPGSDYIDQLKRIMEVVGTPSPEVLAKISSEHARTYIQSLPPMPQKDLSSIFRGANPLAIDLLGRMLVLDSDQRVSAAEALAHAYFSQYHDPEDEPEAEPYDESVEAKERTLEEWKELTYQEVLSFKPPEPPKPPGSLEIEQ

Structure (SMILES) | Kd
COc1cc(N2CCC(N3CCN(C)CC3)CC2)ccc1Nc1ncnc(Nc2ccccc2S(=O)(=O)C(C)C)n1 [ASP-3026] | > 30 µM (inactive)
CNS(=O)(=O)Nc1nccc(Cc2c(C)c3ccc(Oc4ncccn4)cc3oc2=O)c1F [AVUTOMETINIB] | > 30 µM (inactive)
COc1cc(CCc2cc(NC(=O)c3ccc(N4C[C@@H](C)N[C@@H](C)C4)cc3)n[nH]2)cc(OC)c1 [AZD-4547] | > 30 µM (inactive)
Cc1cc([C@@H](C)Nc2ccccc2C(=O)O)c2nc(N3CCOCC3)cc(=O)n2c1 [AZD-6482] | > 30 µM (inactive)
COc1ccc(-c2ccc3c(N4CCOC[C@@H]4C)nc(N4CCOC[C@@H]4C)nc3n2)cc1CO [AZD-8055] | > 30 µM (inactive)
C[C@@H](Nc1cc(F)cc(F)c1)c1cc(C(=O)N(C)C)cc2c(=O)cc(N3CCOCC3)oc12 [AZD-8186] | > 30 µM (inactive)
Cc1ccc(NC(=O)c2ccc(CN3CC[C@H](N(C)C)C3)c(C(F)(F)F)c2)cc1Nc1nccc(-c2cncnc2)n1 [BAFETINIB] | 1.72 µM

Each molecule was assayed against Serine/threonine-protein kinase PAK 2 (Homo sapiens, UniProt Q13177).
Serine/threonine-protein kinase PAK 2, sequence (Q13177 whole entry): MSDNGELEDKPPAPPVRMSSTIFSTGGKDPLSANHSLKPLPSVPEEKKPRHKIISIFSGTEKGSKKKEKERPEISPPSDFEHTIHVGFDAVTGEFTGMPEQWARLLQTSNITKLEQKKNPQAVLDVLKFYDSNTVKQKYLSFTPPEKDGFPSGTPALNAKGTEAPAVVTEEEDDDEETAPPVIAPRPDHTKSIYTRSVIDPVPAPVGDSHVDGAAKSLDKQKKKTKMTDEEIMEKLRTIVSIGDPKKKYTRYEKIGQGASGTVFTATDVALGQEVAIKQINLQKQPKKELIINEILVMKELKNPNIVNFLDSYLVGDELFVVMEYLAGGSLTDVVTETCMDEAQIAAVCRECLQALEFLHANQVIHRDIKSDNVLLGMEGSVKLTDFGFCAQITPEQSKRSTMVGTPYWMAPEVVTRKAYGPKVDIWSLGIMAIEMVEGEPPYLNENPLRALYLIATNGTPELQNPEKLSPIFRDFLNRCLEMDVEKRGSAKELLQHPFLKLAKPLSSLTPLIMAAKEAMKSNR

Structure (SMILES) | Kd
CNS(=O)(=O)Nc1nccc(Cc2c(C)c3ccc(Oc4ncccn4)cc3oc2=O)c1F [AVUTOMETINIB] | > 30 µM (inactive)
COc1cc(CCc2cc(NC(=O)c3ccc(N4C[C@@H](C)N[C@@H](C)C4)cc3)n[nH]2)cc(OC)c1 [AZD-4547] | > 30 µM (inactive)
Cc1cc([C@@H](C)Nc2ccccc2C(=O)O)c2nc(N3CCOCC3)cc(=O)n2c1 [AZD-6482] | > 30 µM (inactive)
COc1ccc(-c2ccc3c(N4CCOC[C@@H]4C)nc(N4CCOC[C@@H]4C)nc3n2)cc1CO [AZD-8055] | > 30 µM (inactive)
Cc1ccc(NC(=O)c2ccc(CN3CC[C@H](N(C)C)C3)c(C(F)(F)F)c2)cc1Nc1nccc(-c2cncnc2)n1 [BAFETINIB] | > 30 µM (inactive)
